Data taken from the CheMixHub ionic liquid set.

Assay: xn = mol fraction of the nth substance listed

CC[n+]1ccn(CCOC)c1.O=S(=O)([N-]S(=O)(=O)C(F)(F)F)C(F)(F)F + CO
100 kPa
Details | viscosity [mPa·s]
288.15 K, x1 = 0.2999 | 7.19
288.15 K, x1 = 0.5 | 15.9
288.15 K, x1 = 0.5984 | 22.75
288.15 K, x1 = 0.7934 | 37.29
293.15 K, x1 = 1 | 43.63
298.15 K, x1 = 0.1 | 1.627
298.15 K, x1 = 0.2999 | 5.44
303.15 K, x1 = 0.2999 | 4.8
303.15 K, x1 = 0.5 | 9.83
303.15 K, x1 = 1 | 29.33
308.15 K, x1 = 0.1997 | 2.658
308.15 K, x1 = 0.2999 | 4.263
308.15 K, x1 = 0.3966 | 6.33
308.15 K, x1 = 0.5984 | 12
308.15 K, x1 = 0.7934 | 18.08
313.15 K, x1 = 0.5984 | 10.42
313.15 K, x1 = 0.6953 | 13.27
313.15 K, x1 = 0.7934 | 15.68
318.15 K, x1 = 0.2999 | 3.449

CCCCCC[n+]1ccn(C)c1.[Cl-] + CCCCCC[n+]1ccn(C)c1.F[B-](F)(F)F
101 kPa
Details | electrical conductivity [S/m] | viscosity [mPa·s]
303 K, x1 = 0.2 | 0.0846 | –
303 K, x1 = 0.4 | 0.0415 | –
303 K, x1 = 0.6 | 0.0196 | –
303 K, x1 = 0.8 | 0.00783 | –
303 K, x1 = 1 | 0.00318 | –
303.15 K, x1 = 0.2 | – | 380
303.15 K, x1 = 0.4 | – | 800
303.15 K, x1 = 0.6 | – | 1835
308 K, x1 = 0.2 | 0.113 | –
308 K, x1 = 0.4 | 0.0581 | –
308 K, x1 = 0.6 | 0.029 | –
308 K, x1 = 0.8 | 0.0123 | –
308 K, x1 = 1 | 0.00531 | –
308.15 K, x1 = 0.2 | – | 275
308.15 K, x1 = 0.4 | – | 550
308.15 K, x1 = 0.6 | – | 1194
313 K, x1 = 0.2 | 0.147 | –
313 K, x1 = 0.4 | 0.0791 | –
313 K, x1 = 0.6 | 0.0413 | –
313 K, x1 = 0.8 | 0.0186 | –
313 K, x1 = 1 | 0.00852 | –
313.15 K, x1 = 0.2 | – | 204
313.15 K, x1 = 0.4 | – | 390
313.15 K, x1 = 0.6 | – | 810
313.15 K, x1 = 0.8 | – | 1892
318 K, x1 = 0.2 | 0.19 | –
318 K, x1 = 0.4 | 0.106 | –
318 K, x1 = 0.6 | 0.0575 | –
318 K, x1 = 0.8 | 0.0272 | –
318 K, x1 = 1 | 0.0133 | –
318.15 K, x1 = 0.2 | – | 156
318.15 K, x1 = 0.4 | – | 283
318.15 K, x1 = 0.6 | – | 560
318.15 K, x1 = 0.8 | – | 1237
323 K, x1 = 0.2 | 0.24 | –
323 K, x1 = 0.4 | 0.14 | –
323 K, x1 = 0.6 | 0.0791 | –
323 K, x1 = 0.8 | 0.0392 | –
323 K, x1 = 1 | 0.0202 | –
323.15 K, x1 = 0.2 | – | 122
323.15 K, x1 = 0.4 | – | 213
323.15 K, x1 = 0.6 | – | 400
323.15 K, x1 = 0.8 | – | 840
323.15 K, x1 = 1 | – | 1879
328 K, x1 = 0.2 | 0.299 | –
328 K, x1 = 0.4 | 0.179 | –
328 K, x1 = 0.6 | 0.106 | –
328 K, x1 = 0.8 | 0.0547 | –
328 K, x1 = 1 | 0.0295 | –
328.15 K, x1 = 0.2 | – | 98
328.15 K, x1 = 0.4 | – | 163
328.15 K, x1 = 0.6 | – | 296
328.15 K, x1 = 0.8 | – | 580
328.15 K, x1 = 1 | – | 1228
333 K, x1 = 0.2 | 0.368 | –
333 K, x1 = 0.4 | 0.227 | –
333 K, x1 = 0.6 | 0.139 | –
333 K, x1 = 0.8 | 0.0747 | –
333 K, x1 = 1 | 0.0423 | –
333.15 K, x1 = 0.2 | – | 78
333.15 K, x1 = 0.4 | – | 128
333.15 K, x1 = 0.6 | – | 220
333.15 K, x1 = 0.8 | – | 420
333.15 K, x1 = 1 | – | 840

CCC(C)O (configuration not stated) + CCCCCC[n+]1ccn(C)c1.O=[N+]([O-])[O-]
100 kPa, x2 = 0
Details | viscosity [mPa·s]
293.15 K | 3.67
298.15 K | 3.04
303.15 K | 2.54
308.15 K | 2.13
313.15 K | 1.8
318.15 K | 1.54
323.15 K | 1.33

CCC(C)O (configuration not stated) + CCOS(=O)(=O)[O-].CC[n+]1ccn(C)c1
Details | viscosity [mPa·s]
308.15 K, 101 kPa, x2 = 0 | 2

CCC[n+]1ccn(C)c1.C[C@H](N)C(=O)[O-] + O
viscosity [mPa·s], 100.3 kPa
Details | 288.15 K | 293.15 K | 298.15 K | 303.15 K | 308.15 K | 313.15 K | 318.15 K | 323.15 K | 328.15 K
x1 = 0.0003008 | 1.156 | 1.017 | 0.9 | 0.81 | 0.727 | 0.661 | 0.604 | 0.554 | 0.511
x1 = 0.0003999 | 1.162 | 1.022 | 0.907 | 0.813 | 0.732 | 0.664 | 0.606 | 0.557 | 0.513
x1 = 0.0004953 | 1.167 | 1.027 | 0.911 | 0.817 | 0.735 | 0.666 | 0.608 | 0.559 | 0.516
x1 = 0.001005 | 1.203 | 1.057 | 0.938 | 0.838 | 0.755 | 0.685 | 0.626 | 0.573 | 0.529
x1 = 0.003004 | 1.362 | 1.197 | 1.057 | 0.939 | 0.842 | 0.759 | 0.688 | 0.629 | –
x1 = 0.004999 | 1.513 | 1.326 | 1.163 | 1.028 | 0.917 | 0.828 | 0.749 | 0.685 | –
x1 = 0.007004 | 1.658 | 1.447 | 1.273 | 1.119 | 0.998 | 0.894 | 0.806 | 0.736 | –
x1 = 0.008999 | 1.822 | 1.576 | 1.368 | 1.21 | 1.071 | 0.959 | 0.868 | 0.781 | –
x1 = 0.011 | 1.958 | 1.698 | 1.478 | 1.302 | 1.147 | 1.027 | 0.929 | 0.832 | –
x1 = 0.01301 | 2.101 | 1.819 | 1.581 | 1.38 | 1.225 | 1.089 | 0.986 | 0.888 | –
x1 = 0.015 | 2.247 | 1.941 | 1.678 | 1.469 | 1.293 | 1.157 | 1.037 | 0.932 | –
x1 = 0.01799 | 2.46 | 2.109 | 1.826 | 1.599 | 1.394 | 1.254 | 1.115 | 1 | –

CCCCCC[n+]1ccn(C)c1.[Cl-] + OCCO
101 kPa
Details | viscosity [mPa·s]
293.15 K, x2 = 0.4977 | 172.9
293.15 K, x2 = 0.6002 | 83.9
303.15 K, x2 = 0 | 4206
313.15 K, x1 = 0.0188 | 10.05
313.15 K, x2 = 0.6987 | 21.31
313.15 K, x2 = 0.8897 | 11.47
313.15 K, x2 = 0.9642 | 10.19
313.15 K, x2 = 0.9761 | 10.09
323.15 K, x1 = 0.0061 | 7.09
323.15 K, x2 = 0 | 783
323.15 K, x2 = 0.6002 | 24.77
323.15 K, x2 = 0.6987 | 15.34
323.15 K, x2 = 0.8998 | 8.19
323.15 K, x2 = 0.9642 | 7.38
333.15 K, x1 = 0.0061 | 5.28
333.15 K, x2 = 0.1526 | 191.8
333.15 K, x2 = 0.4977 | 29.57
333.15 K, x2 = 0.6987 | 11.45
333.15 K, x2 = 0.9532 | 5.61

CCCCCC[n+]1ccn(C)c1.O=S(=O)([N-]S(=O)(=O)C(F)(F)C(F)(F)F)C(F)(F)C(F)(F)F + O
101 kPa, x2 = 0.187
Details | electrical conductivity [S/m] | viscosity [mPa·s]
293.15 K | – | 122
295.15 K | 0.15 | –
